The structures appear in SMILES notation.

In series [1] the test system is primary human gingival fibroblasts (HGF). Put plainly: MTT toxicity assay. The class given is cell-based. Particulars: HCA from 0.1 to 50 μM; 24 and 48 hours. On the technique in general: Formazan colour is commonly taken as a measure of viable cells.
The subject of series [2] is epidydimal white adipose tissues (eWAT). Put plainly: eWAT explants from mice on a HFD for 16 weeks. The class given is cell-based, mouse. Particulars: HCA at 0.5 and 1.0 μM; 16 hours post treatment. As for the experimental part:
In addition, freshly isolated epidydimal white adipose tissues (eWAT) from mice on a HFD for 16 weeks were minced and cultured in 24-well plates and treated with HCA at 0.5 and 1.0 μM in DMEM/F-12 containing 10% cosmic calf serum (CCS) and 1% penicillin-streptomycin (basal growth media, BGM). […] These preliminary data are strong evidence that Sg metabolites have the potential to modulate host inflammatory responses and attenuate inflammation.

Series [3] relates to DIO-mice (C57BL/6J on 60% kCal high-fat diet). Put plainly: Diet-induced obesity (DIO) mouse model, IP HCA. The class given is in vivo. As to the method: Animal care and experimental procedures were performed with approval from the University of Iowa's Institutional Animal Care and Use Committee. Animals received humane care in compliance with the Guide for the Care and Use of Laboratory Animals (National Academies Press, 2011) and with the Principles of Laboratory Animal Care formulated by the National Society for Medical Research. C57BL/6J mice (The Jackson Laboratory, 000664) were kept on a 12-hour light/dark cycle. Mice used to generate the DIO model were placed on a 60% kCal high-fat diet (HFD, Research Diets, D12492) immediately after weaning (i.e., at 3 weeks of age). After 16 weeks, lean and DIO-mice were intraperitoneally (IP) injected with 0.5 uM HCA or PBS control every other day for three weeks. Body weight was measured weekly. All tissues were harvested, frozen in liquid nitrogen, and kept at −80° C. until processed.
Total RNA was isolated using TRIzol reagent (Invitrogen, 15-596-018) and reverse transcribed into cDNA using the iScript cDNA synthesis kit (Bio-Rad, 1708890). Quantitative real-time RT-PCR analysis was performed using SYBR Green (Invitrogen, KCQS00).
Proteins were extracted from cells or tissues and subjected to SDS-polyacrylamide gel electrophoresis, as previously described (Yang et al., 2015). Membranes were incubated with anti-p-AKT (Ser473, Cell Signaling, 9271); anti-AKT1 (H-136, Santa Cruz, sc-8312) or anti-ACTB (H-300, Santa Cruz, sc-10731) at 1:1000 and then incubated with the appropriate secondary antibody conjugated with horseradish peroxidase (1:5000, Santa Cruz, sc-2005 or 1:5000, Cell Signaling Technology, 7074S). Signal was detected using the ChemiDoc Touch Imaging System (Bio-Rad), and densitometric analyses of western blot images were performed using Image Lab software (Bio-Rad).
For immunohistochemistry, tissues were fixed with 4% PFA and sectioned at 5 μm thick, followed by deparaffinization and rehydration processes. Tissue sections were stained using H&E. The images were observed under a Nikon microscope (10×).
Blood samples were centrifuged (4° C., 5000 g, 30 min) to obtain serum. Ten microliters of serum per sample were required for each index analysis. Serum alanine aminotransferase (ALT) and aspartate aminotransferase (AST) were measured by commercial kits. Serum IL-1β, IL-6 and free fatty acid (FFA) content were measured by ELISA (Il-1beta, Biolegend, Cat No. 432604; Il6) or a FFA fluorometric kit (Cayman Chemical, No. 700310), respectively, and then normalized to total protein (BCA).
Whole-body energy expenditure and body composition: Respiratory exchange ratio (RER) and locomotor activity were monitored using a Comprehensive Lab Animal Monitoring System (CLAMS, Columbus Instruments) at the Fraternal Order of Eagles Metabolic Phenotypic Core. Body composition was measured by using Bruker Minispecs (LF50).
Animals were fasted for 6 hours prior to ITT. Insulin tolerance was tested by measuring glucose concentration at different time points after intraperitoneal (IP) insulin injection (0.5 U/kg body weight; Humulin R) (Qian et al., 2018).

Regarding `O=C(O)CCCCCO` [HCA, 6-hydroxycaproic acid], the “toxicity (MTT assay)” value in series [1] was “No toxicity”. In addition, in series [2], the “protein level of IL-6 in cultured media” value is “significantly reduced”; the “transcripts of IL-6, IL-1β, and Nos2” value is “significantly reduced”. Besides, in series [3] (HCA vs HFD alone), the “liver expression of Atg1 and Cd36” value is given as “increased expression”; the “liver expression of Hsl” value is “significantly reduced”. In addition, in series [3] (HCA vs HFD controls), the “Serum free fatty acid (FFA) content” value is on record as “reduced circulating levels”. Moreover, in series [3] (HFD-fed, HCA-treated), the fasting glucose entry is recorded as “HFD-mediated effects were reduced” and the “pAKT in eWAT (insulin signaling)” value is given as “increased pAKT”. Besides, in series [3] (HFD-fed, HCA-treated, insulin 0.5 U/kg IP), the “insulin tolerance (ITT)” value was “HFD-mediated effects were reduced”. Also, in series [3] (HFD, 0.5 uM HCA IP every other day for three weeks), the lean mass result is reported as “increased”. Moreover, the BW gain entry in series [3] (HFD, 0.5 uM HCA IP every other day for three weeks, vs HFD group) was “significantly reduced”. Also, in series [3] (HFD, HCA), the “eWAT RNA-seq: chemokine signaling and leukocyte migration” value is “downregulated”; the “eWAT RNA-seq: fatty acid metabolism, oxidation and absorption, PPAR gamma and AMPK signaling” value is reported as “significantly increased”; the “liver Il1b transcript levels” value is reported as “significantly reduced”; the “serum IL-6, IL-1β, and leptin” value is “reduced”. Besides, in series [3] (HFD, HCA-treated), the “eWAT Adipoq and Ppargamma levels” value is recorded as “levels increased”; the “eWAT mRNA expression of Il6, Nos2 and Lep” value is given as “significantly reduced”; the “serum ALT levels” value is “reduced”. Besides, in series [3] (HFD, HCA-treated vs HFD alone), the “morphology of liver, iWAT and eWAT (H&E)” value is “showed improvement”. Besides, in series [3] (HFD, HCA-treated, CLAMS), the “activity (locomotor)” value was “increased activity” and the “respiratory exchange ratio (RER)” value is recorded as “shift in respiratory exchange ratio (RER) towards increased carbohydrate metabolism”. For the same compound, in series [3] (compared to HFD controls), the “eWAT Cd36 and Gpr81” value is listed as “induced”. Also, the “GPR137B, GPR176, GPR65, GPR85, and FABP7 in WAT (mRNA-seq)” value in series [3] (obese mice treated with HCA) was “upregulation”. In series [3] (obese mice, systemic administration of HCA), the “PPARγ in white adipose tissues (WAT)” value was “upregulation”.

The values are drawn from US20230277483A1, “COMPOSITIONS AND METHODS TO TREAT INFLAMMATION” (University of Iowa Research Foundation, priority 2022, published 2023).
